{"source": "patent US10561846B2", "about": "(priority 2000, dated 2020)", "key": {"[1]": {"test_system": "human macrophage cultures", "experiment": "TNF release from LPS-stimulated human macrophage cultures (TNF ELISA)", "type": "cell-based", "conditions": "for EC50: Macrophage, human macrophages, LPS 100 ng/ml 4 h, n=9, read-out: E.C.50, effective concentration that inhibited 50% of the TNF response"}, "[2]": {"test_system": "TNF mRNA", "experiment": "RNase protection assay of TNF mRNA in LPS-stimulated macrophages", "type": "cell-based, human", "conditions": "agonist 100 µM, 5 min before 2 hour LPS 100 ng/ml (FIG. 2)"}, "[3]": {"test_system": "Murine RAW 264.7 macrophage-like cells", "conditions": "nicotine 0.1-100 µM, 5 min before LPS 500 ng/ml, medium collected after 20 hr (FIG. 15)", "procedure": "Experiments were performed to determine whether the inhibitory effect of cholinergic agonists on proinflammatory cytokines applied to HMG-1. Murine RAW 264.7 macrophage-like cells (American Type Culture Collection, Rockville, Md., USA) were grown in culture under DMEM supplemented with 10% fetal bovine serum and 1% glutamine. When the cells were 70-80% confluent, the medium was replaced by serum-free OPTI-MEM 1 medium. […] Culture medium was collected after 20 hr. The culture medium was concentrated with a Centricon T 10 filter, then analyzed by western blot, using an anti-HMG-1polyclonal antisera (WO 00/47104) and standard methods. Band densities were determined using a Bio-Rad Imaging densitometer."}, "[4]": {"test_system": "nicotinic or muscarinic acetylcholine receptors"}, "[5]": {"test_system": "TNF", "experiment": "TNF immunohistochemistry of cell-associated TNF in human macrophage cultures", "type": "cell-based", "conditions": "ACh 100 µM, 5 min before LPS 100 ng/ml, fixed after 2 hours (FIG. 3)", "experimental": "TNF immunohistochemistry was performed as follows. Human macrophages were differentiated as described above, and grown on glass chamber slides (Nunc, Naperville, Ill.). Slides were incubated in a blocking solution (1% BSA, 5% normal goat serum, 0.3% Triton X-100 in PBS) for 1 hour at room temperature and then incubated for 24 hours at 4° C. with a primary mouse anti-human TNF monoclonal antibody (Genzyme, Cambridge, Mass.) diluted 1:100 in PBS containing 0.3% Triton X-100, 0.1% BSA, and 3% normal goat serum. Washed sections were incubated for 2 hours with secondary biotinylated anti-mouse IgG (1:200, Vector Laboratories, Inc., Burlingame, Calif.). The reaction product was visualized with 0.003% hydrogen peroxide and 0.05% 3,3′-diaminobenzidine tetrahydrochloride as a chromogen. Negative controls were incubated in the absence of primary antibodies (not shown). Slides were analyzed on a light microscope (Olympus BX60, Japan) using a MetaMorth Imaging System (Universal Imaging Co., West Chester, Pa.).\nTo determine whether acetylcholine inhibited macrophage TNF synthesis or macrophage TNF release, monoclonal anti-TNF antibodies were used to label cell-associated TNF in human macrophage cultures. In those experiments (FIG. 3), cells were exposed to either ACh (100 µM), either alone or in the presence of pyridostigmine bromide (1 mM), five minutes before LPS (100 ng/ml) treatment. […]"}, "[6]": {"test_system": "IL-1β", "experiment": "IL-1β release from LPS-stimulated human macrophage cultures (ELISA)", "type": "cell-based", "conditions": "ACh with pyridostigmine bromide 1 mM, LPS 100 ng/ml, 20 hours (FIG. 5)", "experimental": "(§1) To assess specificity, the release of other macrophage-derived cytokines was measured in LPS-stimulated macrophage cultures treated with acetylcholine. In those experiments, human macrophage cultures were incubated with ACh at the indicated concentrations in the presence of pyridostigmine bromide (1 mM) and LPS (100 ng/ml) for 20 hours. IL-1β (FIG. 5), IL-6 (FIG. 6) and IL-10 (FIG. 8) levels were measured in media using commercially available ELISA kits (R&D Systems Inc., Minneapolis, Minn.). IL-18 (FIG. 7) levels were determined by specific ELISA (Medical & Biological Laboratories Co., Ltd., Nagoya, Japan). Each sample was analyzed in triplicate. Data are expressed as Mean.+−.SEM from 4 separate experiments using macrophages prepared from 4 separate healthy donors."}, "[7]": {"test_system": "IL-6", "experiment": "IL-6 release from LPS-stimulated human macrophage cultures (ELISA)", "type": "cell-based", "conditions": "ACh with pyridostigmine bromide 1 mM, LPS 100 ng/ml, 20 hours (FIG. 6)", "experimental": "as §1"}, "[8]": {"test_system": "IL-18", "experiment": "IL-18 release from LPS-stimulated human macrophage cultures (ELISA)", "type": "cell-based", "conditions": "ACh with pyridostigmine bromide 1 mM, LPS 100 ng/ml, 20 hours (FIG. 7)", "experimental": "as §1"}, "[9]": {"test_system": "IL-10", "experiment": "IL-10 release from LPS-stimulated human macrophage cultures (ELISA)", "type": "cell-based", "conditions": "ACh with pyridostigmine bromide 1 mM, LPS 100 ng/ml, 20 hours (FIG. 8)", "experimental": "as §1"}, "[10]": {"test_system": "macrophage cultures", "experiment": "MTT staining and Trypan blue exclusion of macrophage cultures treated with LPS and acetylcholine", "type": "cell-based, human", "conditions": "macrophage cultures treated with LPS and acetylcholine (not shown)"}, "[11]": {"test_system": "IL-1β mRNA", "experiment": "IL-1β mRNA levels, colorimetric microplate assay (Quantikine mRNA)", "type": "cell-based, human", "conditions": "acetylcholine 100 nM, LPS 2 hours; n=3; LPS alone 1974", "text": "(§2) The molecular mechanism of acetylcholine inhibition of IL-1β and IL-6 was investigated further by measuring gene-specific mRNA levels with biotin-labeled capture oligonucleotide probes in a calorimetric microplate assay (Quantikine mRNA, R&D Systems, Inc., Minneapolis, Minn.)."}, "[12]": {"test_system": "IL-6 mRNA", "experiment": "IL-6 mRNA levels, colorimetric microplate assay (Quantikine mRNA)", "type": "cell-based, human", "conditions": "LPS-stimulated macrophages; n=3; LPS alone 1716", "text": "as §2"}, "[13]": {"test_system": "differentiated human macrophages", "experiment": "Acetylcholine suppression of cytokine synthesis (TNF), 'our own studies' compared with macrophage data", "type": "cell-based", "conditions": "printed as differentiated human macrophages, n=3, read-out: E.C.50 for inhibiting TNF"}, "[14]": {"conditions": "ACh with pyridostigmine bromide 1 mM"}, "[15]": {"conditions": "human macrophage cultures, LPS 100 ng/ml for 4 hours (FIG. 1)"}}, "note": "Like-named read-outs stand apart in the source and are kept apart here.", "data": [{"smiles": "CN1CCCC1c1cccnc1", "note": "(centres unmarked) [nicotine]", "values": [{"measurement": "EC50", "setting": "[1]; [14]", "result": 8.3, "unit": "nM"}, {"measurement": "inhibition of TNF release", "setting": "[1]; [15]", "result": "inhibited TNF release in a dose dependent manner"}, {"measurement": "TNF mRNA levels", "setting": "[2]", "result": "do not reduce LPS-stimulated TNF mRNA levels"}, {"measurement": "HMG-1 production", "setting": "[3]", "result": "inhibited HMG-1 production in a dose-dependent manner"}]}, {"smiles": "C[C@@H]1O[C@H](C[N+](C)(C)C)C[C@H]1O", "note": "[muscarine]", "values": [{"measurement": "EC50", "setting": "[1]; P<0.01 vs nicotine or acetylcholine", "result": 42400, "unit": "nM"}, {"measurement": "inhibition of TNF release", "setting": "[1]; [15]", "result": "inhibited TNF release in a dose dependent manner"}, {"measurement": "TNF mRNA levels", "setting": "[2]", "result": "do not reduce LPS-stimulated TNF mRNA levels"}]}, {"smiles": "CN1[C@@H]2CC[C@H]1C[C@@H](OC(=O)C(CO)c1ccccc1)C2", "note": "(some centres unmarked) [atropine]", "values": [{"measurement": "TNF production in vehicle-treated cultures", "setting": "[4]; without acetylcholine (not shown)", "result": "Neither atropine nor α-conotoxin altered TNF production"}]}, {"smiles": "CC(=O)OCC[N+](C)(C)C.[Cl-]", "note": "[acetylcholine, acetylcholine chloride]", "values": [{"measurement": "EC50", "setting": "[1]; [14]", "result": 20.2, "unit": "nM"}, {"measurement": "inhibition of TNF release", "setting": "[1]; [15]", "result": "inhibited TNF release in a dose dependent manner"}, {"measurement": "inhibition of TNF release", "setting": "[1]; macrophage culture media conditioned by exposure to LPS for 20 hours (not shown)", "result": "Comparable inhibition of TNF release"}, {"measurement": "TNF mRNA levels", "setting": "[2]", "result": "did not decrease"}, {"measurement": "LPS-stimulated TNF immunoreactivity in macrophages", "setting": "[5]", "result": "significantly attenuated"}, {"measurement": "IL-1β release", "setting": "[6]", "result": "dose-dependently inhibits the release"}, {"measurement": "IL-6 release", "setting": "[7]", "result": "dose-dependently inhibits the release"}, {"measurement": "IL-18 release", "setting": "[8]", "result": "dose-dependently inhibits the release"}, {"measurement": "IL-10 release", "setting": "[9]", "result": "does not prevent the constitutive release"}, {"measurement": "cytotoxicity (MTT, Trypan blue exclusion)", "setting": "[10]", "result": "not due to cytotoxicity"}, {"measurement": "acetylcholine-treated LPS-stimulated IL-1β mRNA", "setting": "[11]", "result": 2128, "unit": "attomole/ml"}, {"measurement": "acetylcholine-treated LPS-stimulated IL-6 mRNA", "setting": "[12]", "result": 1872, "unit": "attomole/ml"}, {"measurement": "EC50", "setting": "[13]", "result": 800, "unit": "nM"}, {"measurement": "inhibition of TNF release", "setting": "[4]", "result": 80, "unit": "%"}]}, {"smiles": "C[N+](C)(C)CCOC(N)=O", "note": "[carbachol]", "values": [{"measurement": "inhibition of TNF release", "setting": "[1]; [15]", "result": "Inhibition of TNF was also observed"}]}]}
